What all share (type): cell-based
For assay [1], the system named is human B cell lymphoblastoid cell line Ramos. The assay can be described thus: Caspase cascade activation in Ramos cells. The conditions noted are these: 48 h incubation, read-out: caspase potency EC50 RAMOS. The procedure:
(§1) Human breast cancer cell lines T-47D, human hepatocellular carcinoma cell line SNU398, human colon carcinoma cell line HCT116, human cancer cell line H11299, human Burkitt's lymphoma cell line Namalwa, human lymphoma cell line Raji, and human B cell lymphoblastoid cell line Ramos were grown according to media component mixtures designated by American Type Culture Collection+10% FCS (Invitrogen Corporation), in a 5% CO2-95% humidity incubator at 37° C. T-47D and H1299 cells were maintained at a cell density between 50 and 80% confluency at a cell density of 0.1 to 0.6×10^6 cells/mL. Cells were harvested at 600×g and resuspended at 0.65×10^6 cells/mL into appropriate media+10% FCS. An aliquot of 22.5 μL of cells was added to a well of a 384-well microtiter plate containing 2.5 μL of a 10% DMSO in RPMI-1640 media solution containing 0.16 to 100 μM of 6-(3,4-dimethoxyphenyl)-3-(2-methoxyphenyl)-[1,2,4]triazolo[3,4-b][1,3,4]thiadiazole or other test compound (0.016 to 10 μM final). An aliquot of 22.5 μL of cells was added to a well of a 384-well microtiter plate containing 2.5 μL of a 10% DMSO in RPMI-1640 media solution without test compound as the control sample. The samples were mixed by agitation and then incubated at 37° C. for 48 h in a 5% CO2-95% humidity incubator. After incubation, the samples were removed from the incubator and 25 μL of a solution containing 14 μM of N-(Ac-DEVD)-N′-ethoxycarbonyl-R110 (SEQ ID No.:1) fluorogenic substrate (Cytovia, Inc.; WO99/18856), 20% sucrose (Sigma), 20 mM DTT (Sigma), 200 mM NaCl (Sigma), 40 mM Na PIPES buffer pH 7.2 (Sigma), and 500 μg/mL lysolecithin (Calbiochem) was added. The samples were mixed by agitation and incubated at room temperature. Using a fluorescent plate reader (Model SPECTRAfluor Plus, Tecan), an initial reading (T=0) was made approximately 1-2 min after addition of the substrate solution, employing excitation at 485 nm and emission at 530 nm, to determine the background fluorescence of the control sample. After the 3 h incubation, the samples were read for fluorescence as above (T=3 h).
(§2) The Relative Fluorescence Unit values (RFU) were used to calculate the sample readings as follows: RFU(T=3h)−Control RFU(T=0)=Net RFU(T=3h)
(§3) The activity of caspase cascade activation was determined by the ratio of the net RFU value for 6-(3,4-dimethoxyphenyl)-3-(2-methoxyphenyl)-[1,2,4]triazolo[3,4-b][1,3,4]thiadiazole (Example I) or other test compound to that of control samples. The EC50 (nM) was determined by a sigmoidal dose-response calculation (Prism 3.0, GraphPad Software Inc.).

In assay [2] the test system is human leukemia cell line K562. The assay can be described thus: Inhibition of cell proliferation (GI50) in K562 cells. To be noted: 48 h incubation. The procedure: (§4) Human breast cancer cell lines T-47D, MX1 and MDAMB435, human colon carcinoma cell line HCT116, human leukemia cell line K562, human lymphoma cell line Raji, human B cell lymphoblastoid cell line Ramos, and human Burkitt's lymphoma cell line Namalwa were grown and harvested as in Example 14. An aliquot of […] of cells (4.4×10^4 cells/mL) was added to a well of a 96-well microtiter plate containing 5 μL of a 10% DMSO in RPMI-1640 media solution containing 10 nM to 100 μM of 6-(3,4-dimethoxyphenyl)-3-(2-methoxyphenyl)-[1,2,4]triazolo[3,4-b][1,3,4]thiadiazole (1 nM to 10 μM final). An aliquot of 45 μL of cells was added to a well of a 96-well microtiter plate containing 5 μL of a 10% DMSO in RPMI-1640 media solution without compound as the control sample for maximal cell proliferation (LMax). The samples were mixed by agitation and then incubated at 37° C. for 48 h in a 5% CO2-95% humidity incubator. After incubation, the samples were removed from the incubator and 25 μL of CellTiter-Glo™ reagent (Promega) was added. The samples were mixed by agitation and incubated at room temperature for 10-15 min. Plates were then read using a luminescent plate reader (Model SPECTRAfluor Plus, Tecan) to give Ltest values.
(§5) The samples were mixed by agitation and then incubated at 37° C. for 0.5 h in a 5% CO2-95% humidity incubator. After incubation, the samples were removed from the incubator and 25 μL of CellTiter-Glo™ reagent (Promega) was added. The samples were mixed by agitation and incubated at […] 10-15 min at room temperature in a 5% CO2-95% humidity incubator. Fluorescence was read as above, (LStart) defining luminescence for initial cell number used as baseline in GI50 determinations.
(§6) GI50 (dose for 50% inhibition of cell proliferation) is the concentration where [(LTest−LStart)/(LMax−LStart)]=0.5.

For assay [3], the system named is human colon carcinoma cell line HCT116. In words: Inhibition of cell proliferation (GI50) in HCT116 cells. The conditions noted are these: HCT 116 cells, 48 h incubation. How it is done:
as §4, §5, §6

In assay [4] the test system is Human breast cancer cell lines T-47D. In words: Caspase cascade activation (Ac-DEVD-R110 fluorogenic substrate) in T-47D cells. To be noted: T47D cells, 48 h incubation, read-out: caspase potency EC50 T47D. The procedure: as §1, §2, §3
The subject of assay [5] is human Burkitt's lymphoma cell line Namalwa. The assay can be described thus: Inhibition of cell proliferation (GI50) in Namalwa cells. The conditions noted are these: Burkitts lymphoma cell, 48 h incubation. The procedure: as §4, §5, §6
The test system of assay [6] is human hepatocellular carcinoma cell line SNU398. In words: Caspase cascade activation in SNU398 cells. To be noted: SNU-398, 48 h incubation, read-out: caspase potency EC50 SNU398. The procedure:
as §1, §2, §3

Assay [7] has as its system human B cell lymphoblastoid cell line Ramos. The assay can be described thus: Inhibition of cell proliferation (GI50) in Ramos cells. The conditions noted are these: 48 h incubation. How it is done:
as §4, §5, §6

Assay [8] deals with human colon carcinoma cell line HCT116. The assay can be described thus: Caspase cascade activation in HCT116 cells. The conditions noted are these: HCT-116, 48 h incubation, read-out: caspase potency EC50 HCT116. The procedure: as §1, §2, §3
For assay [9], the system named is human Burkitt's lymphoma cell line Namalwa. The assay can be described thus: Caspase cascade activation in Namalwa cells. The conditions noted are these: Burkitts lymphoma cell, 48 h incubation, read-out: caspase potency EC50 Namalwa. How it is done: as §1, §2, §3
The test system of assay [10] is human lymphoma cell line Raji. The assay can be described thus: Caspase cascade activation in Raji cells. The conditions noted are these: RAJ1 cells, 48 h incubation, read-out: caspase potency EC50 RAJ1. How it is done:
as §1, §2, §3

The subject of assay [11] is human lymphoma cell line Raji. The assay can be described thus: Inhibition of cell proliferation (GI50) in Raji cells. To be noted: 48 h incubation. How it is done:
as §4, §5, §6

For orientation: EC50 means the concentration at which the effect is half-maximal. Usually GI50 stands for the concentration giving 50% growth inhibition. The low end stands for more potent growth inhibition, the high end for less potent growth inhibition. `CN(C)c1ccc(-c2nn3c(-c4ccccc4Cl)nnc3s2)cc1` [Entry E1, 3-(2-Chlorophenyl)-6-(4-dimethylaminophenyl)-[1,2,4]triazolo[3,4-b][1,3,4]thiadiazole]: the half-maximal effective concentration (EC50) in assay [1] is 325 nM; in assay [4] it was 1090 nM; in assay [6] it was 556 nM; in [8], 1200 nM; in assay [9], 327 nM; in assay [10], 573 nM. Further, the concentration for 50% growth inhibition (GI50) amounted to 332 nM in [2]; 2040 nM in assay [3]; 167 nM in assay [5]; 146 nM in [7]; 519 nM in assay [11].

Take `COc1ccc(-c2nn3c(-c4cc(OC)c(OC)c(OC)c4)nnc3s2)cc1` [Entry S, 6-(4-Methoxyphenyl)-3-(3,4,5-trimethoxyphenyl)-[1,2,4]triazolo[3,4-b][1,3,4]thiadiazole]: the EC50 is 2440 nM in [1]; 2420 nM in assay [4]; more than 10000 nM in assay [6]; more than 10000 nM in assay [8]; more than 10000 nM in [9]; more than 10000 nM in assay [10]. For the same compound, the concentration for 50% growth inhibition (GI50) was 1460 nM in assay [2]; more than 10000 nM in assay [3]; more than 10000 nM in assay [5]; 4990 nM in [7]; more than 10000 nM in assay [11].

Take `CCN(CC)c1ccc(-c2nn3c(-c4ccccc4C)nnc3s2)cc1` [Entry F1, 6-(4-Diethylaminophenyl)-3-o-tolyl-[1,2,4]triazolo[3,4-b][1,3,4]thiadiazole]: the concentration for a half-maximal effect (EC50) was found to be 712 nM in [1]; 666 nM in assay [4]; 751 nM in assay [6]; 1720 nM in assay [8]; 734 nM in assay [9]; 1020 nM in assay [10]. Further, the GI50 stood at 303 nM in assay [2]; 694 nM in assay [3]; 372 nM in assay [5]; 113 nM in assay [7]; 801 nM in [11].

With `COc1cc(-c2nnc3sc(-c4ccncc4)nn23)cc(OC)c1OC` [X, 6-(Pyridin-4-yl)-3-(3,4,5-trimethoxyphenyl)-[1,2,4]triazolo[3,4-b][1,3,4]thiadiazole], the half-maximal effective concentration (EC50) in assay [1] was more than 10000 nM; in assay [4], 3610 nM; in assay [6] it was 2010 nM; in [8] it was 2360 nM; in assay [9], more than 10000 nM; in assay [10] it was more than 10000 nM.

On to `COc1cc(-c2nnc3sc(-c4ccc(C)c(C)c4)nn23)cc(OC)c1OC` [Entry T, 6-(3,4-Dimethylphenyl)-3-(3,4,5-trimethoxyphenyl)-[1,2,4]triazolo[3,4-b][1,3,4]thiadiazole], for which the EC50 in assay [1] was 314 nM; in assay [4], 517 nM; in assay [6] it was 297 nM; in assay [8], 336 nM; in assay [9], 611 nM; in assay [10] it was 490 nM. The concentration for 50% growth inhibition (GI50) in [2] came out at 131 nM; in assay [3], 906 nM; in assay [5] it was 500 nM; in [7], 137 nM; in assay [11], 559 nM.

Consider `COc1ccccc1-c1nnc2sc(-c3cc4ccccc4o3)nn12` [Entry A1, 6-(Benzofuran-2-yl)-3-(2-methoxyphenyl)-[1,2,4]triazolo[3,4-b][1,3,4]thiadiazole], for which the EC50 in assay [1] was 115 nM; in assay [4] it was 662 nM; in assay [6], 160 nM; in [8] it was 321 nM; in assay [9], 92 nM; in [10], 198 nM. Also, the GI50 in assay [2] amounted to 124 nM; in assay [3] it was 2500 nM; in assay [5], 126 nM; in [7], 58 nM; in [11], 966 nM.

On to `COc1cc(-c2nnc3sc(-c4cccs4)nn23)cc(OC)c1OC` [Y, 6-(Thiophen-2-yl)-3-(3,4,5-trimethoxyphenyl)-[1,2,4]triazolo[3,4-b][1,3,4]thiadiazole], for which the EC50 in assay [1] was more than 10000 nM; in assay [4], 5440 nM; in assay [6], more than 10000 nM; in [8], more than 10000 nM; in assay [9], more than 10000 nM; in assay [10], more than 10000 nM.

Turning to `Cc1cccc(-c2nn3c(-c4ccc(Cl)cc4Cl)nnc3s2)c1` [K, 3-(2,4-Dichlorophenyl)-6-m-tolyl-[1,2,4]triazolo[3,4-b][1,3,4]thiadiazole], the 50% effective concentration (EC50) came to 387 nM in [1]; 607 nM in [4]; 482 nM in assay [6]; 661 nM in [8]; 469 nM in assay [9]; 505 nM in assay [10]. For the same compound, the GI50 is 379 nM in [2]; 400 nM in assay [3]; 559 nM in [5]; 123 nM in assay [7]; 500 nM in [11].

On to `COc1cccc(-c2nnc3sc(-c4ccc(N(C)C)cc4)nn23)c1` [Entry D1, 6-(4-Dimethylaminophenyl)-3-(3-methoxyphenyl)-1-[1,2,4]triazolo[3,4-b][1,3,4]thiadiazole], for which the EC50 was found to be 1250 nM in assay [1]; 1390 nM in [4]; 1650 nM in [6]; 2270 nM in assay [8]; 1290 nM in assay [9]; 1410 nM in assay [10]. For the same compound, the concentration for 50% growth inhibition (GI50) in [2] was determined as 1020 nM; in assay [3] it was 6830 nM; in assay [5], 1130 nM; in [7], 647 nM; in assay [11], 2600 nM.

On to `COc1cc(-c2nnc3sc(-c4ccccc4)nn23)cc(OC)c1OC` [W, 6-Phenyl-3-(3,4,5-trimethoxyphenyl)-[1,2,4]triazolo[3,4-b][1,3,4]thiadiazole], for which the EC50 in assay [1] was more than 10000 nM; in assay [4], 5040 nM; in assay [6], more than 10000 nM; in assay [8], more than 10000 nM; in assay [9], more than 10000 nM; in assay [10] it was more than 10000 nM.

The record behind these values is patent US7732468B2, “3-aryl-6-aryl-[ 1,2,4]triazolo[3,4-b][1,3,4]thiadiazoles and related compounds as activators of caspases and inducers of apoptosis and the use thereof” (Cytovia, Inc., priority 2006, dated 2010).
